Results: patent publication US20140288323A1, “CYCLOPROPENIMINE CATALYST COMPOSITIONS AND PROCESSES” (THE TRUSTEES OF COLUMBIA UNIVERSITY IN THE CITY OF NEW YORK, priority 2011, published 2014)
“And” between values parts separate entries of the source, which are not always exact repeats. Equal values may be shown once. Where a name gives a salt, the structure may show the parent alone.

What was measured:
[1] = pKBH+ estimation of cyclopropenimine 1 by 1H NMR equilibrium with reference bases in CD3CN; type: physicochemical
Experimental: The inventors have measured the acidity of the conjugate acid (pKBH+) of cyclopropenimine (compound 1),
These findings confirm for the first time that 2,3-bis(dialkylamino)cyclopropenimines are indeed potent Brønsted bases.
(§1) tert-Butylamine (1.4 mL, 13.25 mmol, 3.0 equiv) was added to a solution of chlorocyclopropenium salt (Yoshida et al., 1971) (1.640 g, 4.42 mmol, 1.0 equiv) in CH2Cl2 (50 mL). A white precipitate was observed as the reaction mixture was stirred for 48 hours at room temperature. The crude reaction mixture was washed with 1.0 M HCl (3×30 mL), dried with anhydrous sodium sulfate and concentrated in vacuo to yield pure cyclopropenimine hydrochloride salt as a white solid (1.490 g, 97% yield). […] Neutral cyclopropenimine was prepared in situ in CD3CN to be used for pKBH+ estimation. ^1H NMR data was recorded after addition of excess sodium hydride or potassium tert-butoxide to the corresponding cyclopropenimine hydrochloride salt in CD3CN. ^1H NMR (300 MHz, CD3CN) δ 3.60 (m, 4H, NCH(CH3)2), 1.10-1.40 (m, 33H, NC(CH3)3, NCH(CH3)2).
(§2) Cyclopropenimine hydrochloride (18.2 mg, 0.053 mmol, 1.0 equiv) and 1,8-diazabicycloundec-7-ene (7.9 μl, 0.053 mmol, 1.0 equiv) were dissolved in CD3CN. The ^1H NMR chemical shift of the cyclopropenimine isopropyl groups was used to estimate the equilibrium ratio and equilibrium constant of the reaction. The equilibrium constant was then used, with the known pKBH+ of DBU (Kaljurand et al., 2005), to determine the estimated pKBH+. The experiment was repeated in triplicate. A representative ^1H NMR spectrum of the experiment is included.
as §2, with “(13.8” for “(18.2”, “0.04” for “0.053”, “tert-Butylimino-tri(pyrrolidino)phosphorane (12.5 mg, 0.04” for “1,8-diazabicycloundec-7-ene (7.9 μl, 0.053”, “BTPP” for “DBU”, “triplicate.” for “triplicate. A representative ^1H NMR spectrum of the experiment is included.”

[2] = Rearrangement rate study: storage stability of cyclopropenimine 5 and 5.HCl by 1H NMR; type: physicochemical
Experimental: Freshly obtained cyclopropenimine 5 was placed in a vial (250 mg per vial) and stored at room temperature and in a −20° C. freezer. Freshly isolated cyclopropenimine hydrochloride salt (250 mg of 5.HCl) was also stored at room temperature. At each time point, a small amount of the solid was removed and its ^1H NMR (CDCl3) was used to measure the ratio of cyclopropenimine to the rearranged product.

[3] = Storage of cyclopropenimine hydrochloride salts at room temperature; type: physicochemical; conditions: stored at room temperature
Experimental: as §1
Dicyclohexylamine (93.3 mL, 469.0 mmol, 6.0 equiv) was slowly added to a solution of tetrachlorocyclopropene (9.59 mL, 78.16 mmol, 1.0 equiv) in CH2Cl2 (800 mL) in a 3-liter round bottom flask. A white precipitate formed as the reaction mixture was stirred for a further four hours at room temperature. Next, (S)-2-amino-3-phenylpropan-1-ol (13.0 g, 86.0 mmol, 1.1 equiv) was added in one portion and the reaction mixture was stirred for an additional ten hours. The crude reaction mixture was filtered through a celite plug, then washed with 1.0 M HCl (3×400 mL), dried with anhydrous sodium sulfate and concentrated in vacuo to yield pure cyclopropenimine hydrochloride salt as a white solid (45.0 g, 99% yield). […] 13C NMR (100 MHz, CDCl3) δ 137.8, 129.2, 128.0, 126.2, 116.5, 114.5, 63.7, 61.3, 59.1, 38.4, 32.1, 31.9, 25.4, 24.4. X-Ray quality crystals were obtained by slow condensation of hexanes into a benzene solution of cyclopropenimine hydrochloride salt.
Dicyclohexylamine (1.27 mL, 6.42 mmol, 6.0 equiv) was slowly added to a solution of tetrachlorocyclopropene (0.13 mL, 1.07 mmol, 1.0 equiv) in CH2Cl2 (20 mL) at room temperature. A white precipitate formed as the reaction mixture was stirred for a further four hours. Next, (S)-1-phenylethanamine (0.28 mL, 2.14 mmol, 2.0 equiv) was added in one portion and the reaction mixture was stirred overnight. The crude reaction mixture was filtered through a celite plug, then washed with 1.0 M HCl (3×20 mL), dried with anhydrous sodium sulfate and concentrated in vacuo to yield pure cyclopropenimine hydrochloride salt as a white solid (567 mg, 96% yield).
The crude reaction mixture was washed with 1.0 M HCl (3×10 mL), dried with anhydrous sodium sulfate and concentrated in vacuo to yield pure cyclopropenimine hydrochloride salt as a pale yellow solid (440 mg, 98% yield).

[4] = in acetonitrile; Kaljurand et al., 2005; cited from earlier work

For CC(C)N(c1c(N(C(C)C)C(C)C)c1=NC(C)(C)C)C(C)C [cyclopropenimine 1, 3-(tert-butylimino)-N1,N1,N2,N2-tetraisopropylcycloprop-1-ene-1,2-diamine], which “Estimated pKBH+ (CD3CN), BTPP, Average” value ([1]; average of three trials, BTPP as reference base, CD3CN) is on record?
The value was 26.96.

What about the “Estimated pKBH+ (CD3CN), DBU, Average” value ([1]; average of three trials, DBU as reference base, CD3CN) of the same molecule?
Its value is 26.74.

What about the “acidity of the conjugate acid (pKBH+)” value ([1]; in acetonitrile) of the same molecule?
The value was 26.9.

What about the “basicity relative to comparable guanidine BTMG” value ([1]; in acetonitrile) of the same molecule?
The value was “three orders of magnitude more basic”.

What about the “Estimated pKBH+ (CD3CN), BTPP” value ([1]; single trial, BTPP as reference base, CD3CN) of the same molecule?
Its value is 27.00 and 26.85 and 27.03.

What about the “Estimated pKBH+ (CD3CN), DBU” value ([1]; single trial, DBU as reference base, CD3CN) of the same molecule?
The value was 26.75 and 26.74.

Which half-life ([2]; neat solid in a vial, pure sample stored at room temperature, followed over 30 days, read-out: t1/2 of conversion to rearranged compound 13 (converted)) does the source give for OC[C@H](Cc1ccccc1)N=c1c(N(C2CCCCC2)C2CCCCC2)c1N(C1CCCCC1)C1CCCCC1 [cyclopropenimine 5, (S)-2-(2,3-bis(dicyclohexylamino)cycloallylamino)-3-phenylpropan-1-ol] here?
Its half-life is roughly 12 days.

What about the “Cyclopropenimine purity (%)” value ([2]; solid stored at rt, 0 days) of the same molecule?
The value was 100%.

And the “Cyclopropenimine purity (%)” value ([2]; solid stored at rt, 2 days)?
Its value is 78%.

And the “Cyclopropenimine purity (%)” value ([2]; solid stored at rt, 9 days)?
The value was 57%.

And the “Cyclopropenimine purity (%)” value ([2]; solid stored at rt, 16 days)?
Its value is 39%.

What about the “Cyclopropenimine purity (%)” value ([2]; solid stored at rt, 23 days) of the same molecule?
Its value is 25%.

And the “Cyclopropenimine purity (%)” value ([2]; solid stored at rt, 30 days)?
Its value is 5%.

What about the “Cyclopropenimine purity (%)” value ([2]; solid stored at −20° C., 0 days) of the same molecule?
The value was 100%.

What about the “Cyclopropenimine purity (%)” value ([2]; solid stored at −20° C., 2 days) of the same molecule?
The value was 100%.

What about the “Cyclopropenimine purity (%)” value ([2]; solid stored at −20° C., 9 days) of the same molecule?
Its value is 98%.

What about the “Cyclopropenimine purity (%)” value ([2]; solid stored at −20° C., 16 days) of the same molecule?
Its value is 96%.

What about the “Cyclopropenimine purity (%)” value ([2]; solid stored at −20° C., 23 days) of the same molecule?
The value was 96%.

And the “Cyclopropenimine purity (%)” value ([2]; solid stored at −20° C., 30 days)?
Its value is 94%.

What about the sample still intact ([2]; stored at −20° C., after 30 days) of the same molecule?
The sample still intact was 94%.

Which “storage stability of the hydrochloride salt” value (from here on “storage stability”) [3] does the source give for CC(C)N(c1c(N(C(C)C)C(C)C)c1=NC(C)(C)C)C(C)C [1.HCl, 3-(tert-butylimino)-N1,N1,N2,N2-tetraisopropylcycloprop-1-ene-1,2-diamine hydrochloride salt] here?
Its value is “without noticeable decomposition”.

With C1CN=C2NCCCN2C1 [TBD] as the molecule, how does the “pKBH+” value [4] read?
Its value is 26.03.

For CC(C)N(c1c(N(C(C)C)C(C)C)c1=N[C@H](CO)Cc1ccccc1)C(C)C.Cl [8.HCl, (S)-2-(2,3-bis(diisopropylamino)cycloallylamino)-3-phenylpropan-1-ol hydrochloride salt], which “storage stability” value [3] is on record?
Its value is “without noticeable decomposition”.

With CN(C)P(=NC(C)(C)C)(N(C)C)N(C)C [P1-^tBu] as the molecule, how does the “pKBH+” value [4] read?
Its value is 26.98.

Which “Cyclopropenimine purity (%)” value ([2]; HCl salt stored at room temperature, 0 days) does the source give for Cl.OC[C@H](Cc1ccccc1)N=c1c(N(C2CCCCC2)C2CCCCC2)c1N(C1CCCCC1)C1CCCCC1 [5.HCl, (S)-2-(2,3-bis(dicyclohexylamino)cycloallylamino)-3-phenylpropan-1-ol hydrochloride salt] here?
The value was 100%.

What about the “Cyclopropenimine purity (%)” value ([2]; HCl salt stored at room temperature, 2 days) of the same molecule?
Its value is 100%.

And the “Cyclopropenimine purity (%)” value ([2]; HCl salt stored at room temperature, 9 days)?
The value was 100%.

And the “Cyclopropenimine purity (%)” value ([2]; HCl salt stored at room temperature, 16 days)?
Its value is 100%.

What about the “Cyclopropenimine purity (%)” value ([2]; HCl salt stored at room temperature, 23 days) of the same molecule?
Its value is 100%.

And the “Cyclopropenimine purity (%)” value ([2]; HCl salt stored at room temperature, 30 days)?
The value was 100%.

And the “stability of the HCl salt” value ([2]; at room temperature)?
The value was “indefinitely stable”.

And the “storage stability” value [3]?
Its value is “without noticeable decomposition”.

Which “storage stability” value [3] does the source give for C[C@H](N=c1c(N(C2CCCCC2)C2CCCCC2)c1N(C1CCCCC1)C1CCCCC1)c1ccccc1.Cl [7.HCl, (S)—N1,N1,N2,N2-tetracyclohexyl-3-(1-phenylethylimino)cycloprop-1-ene-1,2-diamine hydrochloride salt] here?
The value was “without noticeable decomposition”.

Which “pKBH+” value [4] does the source give for CN(C)C(=NC(C)(C)C)N(C)C [BTMG] here?
Its value is 23.56.
